The record followed here is US20260060957A1, “COMPOUNDS AND COMPOSITIONS USEFUL FOR TREATMENT OF PROLIFERATIVE DISEASE OR DISORDER” (University of Houston System, priority 2023, published 2026).

Molecules are shown by their SMILES.

Format in all cases: cell-based, human
Assay [1] concerns cleaved caspase 3 (c-Casp3). Kind of assay: Western blot of stem cells exposed to IAP antagonists and ponatinib (cleaved caspase 3). Particulars: BE stem cells exposed to IAP antagonist and ponatinib; six-hour exposure; FIG. 42c. From the text:
Based on the properties of diverse IAP antagonists in combination with ponatinib towards BE stem cells, synthetic chemistry was employed to expand the repertoire of IAP antagonists available for these studies. A squaramide linker strategy was chosen for generating bivalent IAP antagonists based on its planar structure and separation of the headgroups that contain the peptide […] domains that interact with cIAP1, cIAP2, and XIAPs, and screened them in dose-response assays against BE stem cells in the presence and absence of ponatinib (FIG. 42d).
(In general: A western blot detects proteins with antibodies after separation by electrophoresis.)

A further assay deals with BE stem cells. Kind of assay: Survival of Barrett's esophagus (BE) stem cells, high-throughput screen and dose-response. From the text:
The present example describes methods used for testing the efficacy of compounds described herein. The selective growth of stem cells of cancers, of their precursor lesions, and of normal and chronically diseased epithelial tissues is described in the references below. In brief, biopsied tissues are reduced to single cell suspensions and plated onto lawns of irradiated 3T3-J2 feeder cells in specialized StemEcho media and libraries of colonies are evident in 7-10 days. Single cell-derived clones are generated by single cell FACS sorting to 384 well plates and wells with individual colonies are expanded, analyzed by molecular genetics, and grown as discrete clones.
After 2-5 days, the cells are fixed using paraformaldehyde and the human cells are labelled with human-specific antibodies followed by fluorochrome-labelled secondary antibodies. Human cell numbers are quantified via high-throughput imaging technology (CellInsight CX7 LED, Thermo), and data analyzed by Excel.
To learn more about the relative efficacy of these IAP antagonists in a synthetic lethal combination with ponatinib, we compared their effects in dose-response assays in vitro against BE stem cells. […]

Assay [2] deals with RIPK1 S320/S166 phosphorylation, cIAP1, cIAP2, cleaved Caspase 3 in LGD stem cells. Kind of assay: Western blot of LGD stem cells (RIPK1 phosphorylation, cIAP1/cIAP2, cleaved Caspase 3). Particulars: ponatinib 300 nM, 7532N 10 nM, 16 hr per FIG. 42j.

On to `CN[C@@H](C)C(=O)N[C@H](C(=O)N1CCC[C@H]1C(=O)N[C@H]1c2ccccc2C[C@H]1OCC#CC#CCO[C@@H]1Cc2ccccc2[C@@H]1NC(=O)[C@@H]1CCCN1C(=O)[C@@H](NC(=O)[C@H](C)NC)C1CCCCC1)C1CCCCC1` [AZD5582], for which the “Induction of cleaved caspase 3 (c-Casp3), western blot” value in assay [1] was “induced a cleaved caspase 3”.
In the case of `CN[C@@H](C)C(=O)N[C@H]1CCCC[C@H]2CC[C@@H](C(=O)N[C@@H](c3ccccc3)c3cn(CCCCc4ccc(CCCCn5cc([C@@H](NC(=O)[C@@H]6CC[C@@H]7CCCC[C@H](NC(=O)[C@H](C)NC)C(=O)N76)c6ccccc6)nn5)cc4)nn3)N2C1=O` [SM-164], the “Induction of cleaved caspase 3 (c-Casp3), western blot” value in assay [1] is given as “induced a cleaved caspase 3”.
With `Cc1ccc(C(=O)Nc2ccc(CN3CCN(C)CC3)c(C(F)(F)F)c2)cc1C#Cc1cnc2cccnn12` [ponatinib], the “Inhibition of BE stem cells” value with BE stem cells (eight patient-derived BE stem cells, FIG. 40d) came out at 20%.
For the molecule `CN[C@@H](C)C(=O)N[C@H](C(=O)N1CCC[C@H]1C(=O)N[C@H]1c2ccccc2C[C@H]1OCCOCCNc1c(NCCOCCO[C@@H]2Cc3ccccc3[C@@H]2NC(=O)[C@@H]2CCCN2C(=O)[C@@H](NC(=O)[C@H](C)NC)C2CCCCC2)c(=O)c1=O)C1CCCCC1` [Compound I-1], the “RIPK1 phosphorylation, cIAP1/cIAP2 and apoptosis in LGD stem cells, western blot” value in assay [2] was “degradation of cIAP1 and cIAP2 without inducing cleaved Caspase 3”.
As to `Cc1cn(-c2cc(NC(=O)c3ccc(C)c(Nc4nccc(-c5cccnc5)n4)c3)cc(C(F)(F)F)c2)cn1` [nilotinib], the “Identification in high-throughput screens” value with BE stem cells (screens against BE and ESO stem cells) was “not identified in our screens”.
